In a melting point compilation (Tetko et al.; mined from patent text by program, amines drawn as free bases though some values may be those of a salt):

Compared with O=C(Nc1nc(-c2ccc(OC(F)F)cc2)cs1)C1CC1, CC1(C)OCCN1c1nc(-c2ccc(C#N)cc2)cs1 is lower in melting point: 202 to 203 °C for the first, 108 to 111 °C for the second.

Compared with COc1ccc2c(c1)c(CCl)nn2Cc1ccccc1, Cc1nc2n(c1CO)-c1ccccc1N(C)c1ccccc1-2 is higher in melting point: 78 to 80 °C for the first, 187 to 190 °C for the second.

First: Cc1ccc(OC2SCC(O)C(O)C2O)c(-c2ccoc2)n1 (configuration not stated)
Second: C=CC(=O)Oc1ccc(N2C(=O)C(=C(C)C)/C(=C(/C)c3cc(C)oc3C)C2=O)cc1
The melting point of the first is higher: 162 °C for the first, 157 to 158 °C for the second.

First: CCCCCS(=O)(=O)NC(=O)/C=C/c1ccc(OCCOC2CC2)cc1Oc1ncc(C(F)(F)F)cc1Cl
Second: O=C(O)c1ccc2cc(OCCCCCCc3cccc(O)c3O)ccc2c1
The melting point of the first is lower: 105 to 106 °C for the first, 167 to 171 °C for the second.

First: CCCCc1nnc(SCc2ccc(Cl)cc2)n1Cc1ccc(OC(C(=O)O)c2ccccc2)cc1 (configuration not stated)
Second: CCCCN(Cc1ccc(-c2ccccc2C#N)cc1)C(=O)Cc1ccccc1C(=O)O
The melting point of the first is lower: 66 to 67 °C for the first, 137 to 139 °C for the second.

First: Cc1nc(-c2ccc(-c3cscn3)c(C)c2)c(-c2ccc(S(C)(=O)=O)c(F)c2)o1
Second: COc1cc2c(cc1F)C(=Cc1ccc(S(C)=O)cc1)C(C)=C2CC(=O)O (configuration not stated)
The melting point of the first is lower: 177 to 178 °C for the first, 190 to 193 °C for the second.

First: Cc1cc2c(-c3ccccc3)c(C(=O)NCc3cc(C(F)(F)F)cc(C(F)(F)F)c3)n(CC(N)=O)c(=O)c2cc1C
Second: CC(C)(O)c1nnn(Cc2cccc(C(F)(F)F)c2)c1I
The melting point of the first is higher: 235 to 237 °C for the first, 77 to 80 °C for the second.

Compared with CS(=O)(=O)c1ccc(-c2cc(CO[N+](=O)[O-])nn2CC2CCCCC2)cc1, CCOC(=O)c1ncc2c(c1COC)c1c(OCc3ccccc3)cccc1n2S(=O)(=O)c1ccc(C)cc1 is higher in melting point: 98 to 99 °C for the first, 149 to 150 °C for the second.

First: COC(=O)c1ccc(F)c2c1OCC=C2
Second: CCOC(=O)C1=C(N)N=C(OCC)C(C(=O)O)C1c1ccccc1[N+](=O)[O-] (configuration not stated)
The melting point of the first is lower: 65 to 67 °C for the first, 133 to 134 °C for the second.

First: CCC(C(=O)N(C)C)n1cc(C)c(-c2cccs2)n1 (configuration not stated)
Second: COc1cc2c(cc1OC)C(C)=[N+]([O-])C(c1cccs1)N2 (configuration not stated)
The melting point of the first is lower: 83 to 85 °C for the first, 180 to 185 °C for the second.

First: CN(N)C(=S)Nc1ccc([N+](=O)[O-])cc1Cl
Second: Cn1cc(OS(C)(=O)=O)c(=O)c2ccc(S(C)=O)cc21 (configuration not stated)
The melting point of the first is lower: 164 to 167 °C for the first, 248 °C for the second.

First: CCS(=O)(=O)c1ccc2c3c(cccc13)C(=O)N2
Second: O=C1Nc2cccc(/C=C/c3ccccc3Cl)c2/C1=C/c1ccc[nH]1
The melting point of the first is higher: 270 to 272 °C for the first, 257 to 258 °C for the second.

First: O=C(O)C1(c2ccc(Nc3nc(N4CCCC4)nc4c3CCC4)cc2)CCC1
Second: O=C(Oc1ccc2cc(CN3CCCC3)ccc2c1)N1CCC(c2ccc(Cl)cc2)CC1
The melting point of the first is higher: 245 to 247 °C for the first, 121 to 123 °C for the second.

Compared with Cc1ccc(C(=O)Nc2ccc(CN3CCN(C)CC3)c(C(F)(F)F)c2)cc1C#Cc1ccc(NC(C)C)nn1, O=C(Nc1ccc(C(F)(F)F)cc1)C1CC(c2ccc(F)cc2)N(c2ccc(Cl)cc2)N1 (configuration not stated) is lower in melting point: 67 to 68 °C for the first, 50 to 55 °C for the second.

First: CCCCOC(=O)COc1ccc(C(=O)Nc2ccccc2Sc2cc(OC)ccc2-c2nnn[nH]2)cc1
Second: CCOC(=O)CC(O)CC(O)C=CC(=C(c1ccc(F)cc1)c1ccc(F)cc1)n1nnnc1-c1ccccc1 (configuration not stated)
The melting point of the first is higher: 169 to 171 °C for the first, 160 to 162 °C for the second.

First: CCOC(=O)C1=C2C(=CC3=C(CCCC3)N2O)SC1C (configuration not stated)
Second: Fc1cccc(F)c1-c1nc2c(s1)NCCCC2
The melting point of the first is lower: 135 to 136 °C for the first, 143 to 144 °C for the second.

First: CN1C(=NCCCCn2ccnc2)c2cccc3cccc1c23
Second: CC1Cc2ccccc2N1c1nc(=O)c2cccnc2s1 (configuration not stated)
The melting point of the first is lower: 126 to 127 °C for the first, 179 to 180 °C for the second.

Compared with C=CC1(COC(C)=O)OC(OC2C(COCc3ccccc3)OC(OC)C(OCc3ccccc3)C2OCc2ccccc2)C(OC(C)=O)C(OC)C1OC(C)=O (configuration not stated), CN(N=Cc1ccccc1)C(=NC(=O)CN1C(=O)c2ccccc2C1=O)NCCCOc1cccc(CN2CCCCC2)c1 is higher in melting point: 47 °C for the first, 84.5 °C for the second.

Molecule COc1ccc(N2CCOCC2)c2sc(NC(=O)N3CCCOCC3)nc12 has a melting point of 171 to 172 °C.
